This is an account of results in patent US8609730B2, “Rel inhibitors and methods of use thereof” (The Trustees of the University of Pennsylvania, priority 2008, dated 2013).

In one data set the test system is spleen cells of B6 mice. Description: Cytokine production by spleen cells treated with anti-CD3 antibody (ELISA). In kind it is cell-based. On the procedure:
FIG. 1. FIG. 1A depicts a graph showing the IL-2 inhibitory effect of R13D (compound III), R13096 (compound CXX), and R13015 (compound VI). FIG. 1B depicts a graph showing the IFN-gamma inhibitory effect of R13D (compound III), R13096 (compound CXX), and R13015 (compound VI).
FIG. 3. Depicts a graph showing Splenocytes that were cultured under various conditions as indicated on the X-axis. Twenty-four hours later, cytokines in the supernatant were determined by ELISA (R13D is compound III, R31C. is compound IV, R32D is compound VII).
To determine whether these inhibitors are effective in suppressing cytokine production by inflammatory cells, spleen cells of B6 mice were treated with anti-CD3 antibody (to activate the inflammatory cells) with or without different concentrations of the compounds. […] As further shown in FIG. 1 IL-2 and IFN-gamma were inhibited by […], and compound VI at concentrations ranging from 5-20 μM.

The test system of data set [1] is splenocytes or purified CD4+ splenic T cells of C57BL/6 mice. Description: Cell-based assay for testing c-Rel blockers: cytokine expression with anti-CD3 and anti-CD28. The settings on record: for IL-2 production by T cells (IL-2 release assay, secondary screening): hits of virtual screening. The arrangement: IL-4 in culture: dose or concentration left out as unconfirmed. On the procedure: (§1) Splenocytes of C57BL/6 mice (n=4) were cultured with or without plate-bound anti-CD3 (1 ug/ml) and soluble anti-CD28 (2 ug/ml), in the presence of various concentrations of R96 as indicated. R96 was dissolved in PBS, and the amount of the PBS added to each culture was identical ([…]). Twenty-four hours later, cytokines in the supernatant were determined by ELISA (A-C). The percentages of dead cells in the culture were determined by flow cytometry following staining cells with annexin-V and propidium iodide (PI)(D).
To design drugs that could disable human c-Rel binding to DNA (therefore blocking the biological activity of c-Rel), chicken c-Rel 3-D model was first humanized by replacing chicken residues with their human counterparts. The model was then minimized using the Insight II software (Accelrys, Inc). The minimized model was used to discover small molecule inhibitors that can interfere with the residues in loops L1 and L2. A small druggable cavity was identified using programs available in Insight II. This structure was designated as the L1 cavity. The L1 cavity is formed by loops L1, L2 and a helix. Residues Arg 21, Cys 26, Glu 27, Lys 110 and Lys 111 form the mouth of the L1 cavity (FIG. 2). A virtual screening approach was used to identify small molecule inhibitors that block DNA binding to the L1 cavity by perturbing these key contact residues as we previously described. From ˜50,000 drug-like molecules of available chemical libraries, about 100 hits were identified. […] These compounds fall into two structural classes, the phenylcarbamates (FIG. 2C) and sulfanyl-methaniminium-based compounds, represented by R13:
To determine whether the c-Rel blockers identified above are effective in regulating inflammatory cell function, splenocytes or purified CD4+ splenic T cells of C57BU6 mice were treated with anti-CD3 and anti-CD28 in the presence of increasing concentrations of the compounds. Cytokine expression was determined by ELISA, flow cytometry or real-time PCR, whereas CD4 expression and cell survival were determined by flow cytometry alone. […]

Data set [2] has as its system C57BL/6 mice immunized to induce EAE. Description: EAE induced with MOG38-50 peptide, prevention and treatment. In kind it is in vivo. Particulars: for treating ongoing EAE (after onset): i.p. daily after onset, 100 ug/mouse/injection.
Data set [3] relates to splenocytes or CD4+ T cells of C57BL/6 mice. Description: Cell survival / dead cells by flow cytometry (annexin-V and propidium iodide). Further details: survival of CD4+ T cells or total splenocytes: dose or concentration left out as unconfirmed. It counts as cell-based. As for the experimental part:
as §1
To determine whether the c-Rel blockers identified above are effective in regulating inflammatory cell function, splenocytes or purified CD4+ splenic T cells of C57BU6 mice were treated with anti-CD3 and anti-CD28 in the presence of increasing concentrations of the compounds. Cytokine expression was determined by ELISA, flow cytometry or real-time PCR, whereas CD4 expression and cell survival were determined by flow cytometry alone. […] The IC50 of R96 for IL-2 inhibition is […]. […] Because Th1 cytokine IFN-g inhibits the activity of Th2 cells, the increased IL-4 in cultures containing […] R96 could be due to the reduced IFN-g in the culture. […] In fact, c-Rel-deficient mice have reduced but not increased IgG1, IgG3 and IgE production.
A general note: In flow cytometry, cells or beads pass a laser one at a time.

Where [4] appears, read: anti-CD3 treated spleen cells, 24 h, FIG. 3.
Setting [5] is: FIG. 1, concentrations ranging from 5-20 μM.

“Also recorded” adds a separate entry of the source.

On to `O=C(Nc1ccccc1)OCc1nccn1Cc1ccc(Cl)cc1` [R13], for which, in the data set with spleen cells of B6 mice (setting [4]), the “Interleukin (IL)-2 production” value is on record as “significantly inhibited” and the interferon-gamma production entry was “significantly inhibited”. Moreover, in data set [1], the “IL-2 production by T cells (IL-2 release assay, secondary screening)” value is “significantly inhibited”. Moreover, in data set [2], the “treating ongoing EAE (after onset)” value was “statistically significant; also recorded: significantly ameliorated”. The “preventing EAE (prophylaxis)” value in data set [2] (i.p. daily from day 1 to day 13, 100 ug/mouse/injection (100 mg)) is recorded as “statistically significant”.
Regarding `Br.N#Cc1ccc(CSC(=N)Nc2ccccc2)cc1` [R96], the IL-4 in culture entry in data set [1] (cultures containing R96) is given as “increased”. Moreover, the “IL-2 production by T cells (IL-2 release assay, secondary screening)” value in data set [1] was “most potent”. In data set [3] (highest concentration tested), the “survival of CD4+ T cells or total splenocytes” value was “does not significantly affect”. Further, the “percentage of annexin-V+ and PI+ cells (dead cells)” value in data set [3] (various concentrations, 24 h) was “No significant differences”. Moreover, in data set [2], the “treating ongoing EAE (after onset)” value is on record as “statistically significant; also recorded: significantly ameliorated”. In data set [2] (seven days into the treatment after onset, FIG. 5C, control 1.83±0.16, p<0.001), this compound came in with a mean disease score of 0.75±0.43.
For the compound `CC(C)(C)c1cc(NC(=O)/C(C#N)=C/c2cccc(Cl)c2Cl)c(C(N)=O)s1` [compound V], in the data set on spleen cells of B6 mice (setting [5]), the IFN-gamma inhibition result is listed as “inhibited” and the IL-2 inhibition entry was “inhibited”.
